In patent US20200247815A1, “PYRAZOLYL-CONTAINING TRICYCLIC DERIVATIVE, PREPARATION METHOD THEREFOR AND USE THEREOF” (Jiangsu Hansoh Pharmaceutical Group Co., Ltd., priority 2017, published 2020):

Assays:
ERK-1 kinase = biological target: T1, ERK-1 kinase (Homo sapiens, UniProt P27361); test: Inhibition of ERK-1 kinase activity (LANCE Ultra TR-FRET); assay type: biochemical; conditions: ERK1 enzyme 0.4 nM, ATP 38.15 μM
T1 construct: purchased Invitrogen PV3311
Summary of the method: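 Reactions contained 0.4 nM ERK1, 0.5 μM Ulight-MBP peptide and 38.15 μM ATP in pH 7.4 Hepes/MgCl2 buffer with 4% DMSO and ran 60 minutes at room temperature. Detection used Eu-anti-p-MBP with a 665/615 nm TR-FRET ratio, normalised to DMSO and no-enzyme controls. Final concentrations were 100 nM to 0.005 nM, and IC50 came from a 4-parameter fit.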

ERK-2 kinase = biological target: T2, ERK-2 kinase (Homo sapiens, UniProt P28482); test: Inhibition of ERK-2 kinase activity (LANCE Ultra TR-FRET); assay type: biochemical; conditions: ERK-2 enzyme 0.08 nM, ATP 38.15 μM
T2 construct: purchased Invitrogen PV3313
T2 sequence (P28482 whole entry): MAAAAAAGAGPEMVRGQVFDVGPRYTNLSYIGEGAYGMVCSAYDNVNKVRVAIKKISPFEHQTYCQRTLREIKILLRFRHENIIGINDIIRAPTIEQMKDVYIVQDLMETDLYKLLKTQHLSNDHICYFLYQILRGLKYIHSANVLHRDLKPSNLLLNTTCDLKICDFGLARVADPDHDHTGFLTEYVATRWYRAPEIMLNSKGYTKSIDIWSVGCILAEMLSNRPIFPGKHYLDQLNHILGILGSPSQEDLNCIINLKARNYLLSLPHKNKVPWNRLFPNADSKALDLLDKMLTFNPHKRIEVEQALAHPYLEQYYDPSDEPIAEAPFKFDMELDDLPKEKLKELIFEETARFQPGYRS
Summary of the method: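 Recombinant ERK-2 (0.08 nM) with ULight-MBP peptide (0.5 μM) and ATP (38.15 μM) in Hepes pH 7.4 buffer, compound 100 nM to 0.005 nM final, 4% DMSO, 60 min at room temperature. Eu-anti-p-MBP TR-FRET (665/615 nm) read after EDTA stop; % inhibition versus DMSO and no-enzyme controls fitted 4-parameter for Abs_IC50.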

[1] = Pharmacokinetics assay in mice (oral, plasma); assay type: in vivo, Balb/c Mouse
Protocol: Balb/c Mouse was used as the test animal. The pharmacokinetic behavior of compounds of Example 1, 2 and 7 administrated orally was studied in mice (plasma).
170 g of PEG400 and 20 g of Solutol HS-15 were added to a 250 mL glass flask, and then 10 mL of NMP was added. The solution was mixed well by ultrasound for 10 minutes to obtain a clear solution.
11.2 mg of the compound of Example 1, 10.8 mg of the compound of Example 2 and 9.8 mg of the compound of Example 7 were weighted to a 4 mL glass flasks respectively, […], 2.160 mL and […] of the above solution were treated by ultrasound for 10 minutes to obtain a colorless clear solution with a concentration of 5 mg/mL.
After fasting overnight, the male Balb/c mice were administrated with the compounds (PO), the dose was 50 mg/kg, and the administration volume was 10 mL/kg.
Blood was taken before administration and at 0.25, 0.5, 1, 2, 4, 6, 8 and 24 hours after administration. The blood samples were stored in EDTA-2K tubes, and centrifuged for 6 minutes to separate the blood plasma. The plasma samples were stored at −80° C.

[2] = system: human pancreatic cancer cell MiaPaca 2 xenograft (CDX) model; test: Tumor inhibition experiment in MiaPaca 2 xenograft model; assay type: in vivo, BALB/c nude mice
Protocol: BALB/c nude mice were used as test animals. In vivo pharmacodynamic test was carried out in human pancreatic cancer cell MiaPaca 2 xenograft (CDX) model to evaluate the antitumor effect of the test compound.
MiaPaca 2 cells were obtained from the cell bank. After recovery, the cells were added to a DMEM medium (containing 10% FBS, 1% Glu and 1% P/S), and incubated in the CO2 incubator (the incubator temperature was 37° C., and the CO2 concentration was 5%). The cells were subjected to passage after spreading 80-90% of the bottom of the culture flask. After passage, the cells were incubated in the CO2 incubator. This process was repeated until the number of cells met the required by in vivo pharmacological inoculation. Cells in log phase were collected, and counted by the automatic cell counter. The cells were re-suspended with PBS and Matrigel (1:1 by volume) based on the counting results to obtain a cell suspension (cell density: […]), which was placed in an ice box.
Female BALB/c nude mice (6-8 weeks old, body weight: 18-22 grams) were used as test animals. The mice were maintained in individually ventilated cages (5 mice per cage) in a special pathogen-free environment. All cages, padding and water were disinfected before use. All animals had free access to standard certified commercial laboratory diets. The nude mice were labeled with disposable ear tags before the experiment. The skin of the inoculated area was sterilized with 75% medical alcohol before inoculation. Each mouse was subcutaneously inoculated with 0.1 ml (containing 8*10^6 cells) of MiaPaca 2 tumor cells on the right back. Administration was started when the average tumor volume reached 100-200 mm^3. The test compound was administrated intragastrically daily. The tumor volume (mm^3) was measured with vernier caliper twice a week. Calculation formula: V=0.5*D*d*d, wherein D and d refer to the major and minor diameter of the tumor, respectively. The anti-tumor efficacy was determined by dividing the average tumor increase volume of compound-treated animals by the average tumor increase volume of untreated animals. Calculation formula of tumor inhibition rate: TGI (%)=1−[(Vt−V0)administration group/(Vt−V0)solvent control group]*100%. All animals were euthanized after the experiment.

[3] = Solubility (statement, no method); assay type: physicochemical
[4] = conventional solvents, background statement; cited from earlier work
[5] = mouse, male Balb/c mice, PO 50 mg/kg, plasma
[6] = 100 mg/kg QD × 3 w, intragastric, Day 21

T1 sequence (P27361 whole entry): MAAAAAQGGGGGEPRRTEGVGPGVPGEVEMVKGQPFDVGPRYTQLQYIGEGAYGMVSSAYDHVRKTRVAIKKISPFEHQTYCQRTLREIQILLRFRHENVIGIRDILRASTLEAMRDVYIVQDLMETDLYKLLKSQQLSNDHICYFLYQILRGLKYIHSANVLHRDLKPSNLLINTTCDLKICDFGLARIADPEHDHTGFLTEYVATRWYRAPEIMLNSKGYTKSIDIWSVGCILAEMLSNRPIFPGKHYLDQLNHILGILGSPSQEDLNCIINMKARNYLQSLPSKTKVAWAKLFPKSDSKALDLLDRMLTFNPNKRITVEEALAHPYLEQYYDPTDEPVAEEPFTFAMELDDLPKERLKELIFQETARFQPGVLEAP

Question: Which results are given for `C[C@@H](NC(=O)c1nc2cc3c(-c4ccncc4)n[nH]c3cc2[nH]1)c1ccc(F)cc1` [Example 7, (R)—N-(1-(4-fluorophenyl)ethyl)-3-(pyridin-4-yl)-1,7-dihydroimidazo[4,5-f]indazole-6-carboxamide]?
Answer: IC50 (ERK-1 kinase): 0.41 nM; IC50 (ERK-2 kinase): 0.18 nM; Exposure in mouse plasma ([1]; dose of 50 mg/kg, oral): good exposure; Cmax [1, 5]: 8260 ng/mL; MRT [1, 5]: 2.33 h; Tmax [1, 5]: 1 h; half-life [1, 5]: 49.8 min; AUC(0-t) ([1]; mouse, male Balb/c mice, PO 50 mg/kg, plasma, read-out: AUC0-24): 27300 ng·h/mL; Tumor volume (Mean ± SD) Day 0 ([2]; 100 mg/kg QD × 3 w, intragastric, Day 0): 156 ± 33 mm^3; TGI Day 21 [2, 6]: 58.3%; Tumor volume (Mean ± SD) Day 21 [2, 6]: 426 ± 205 mm^3; ΔT/ΔC Day 21 [2, 6]: 41.63%; Inhibition of growth of xenograft ([2]; 100 mg/kg QD, continuous oral administration for 21 days): significantly inhibit the growth; Solubility compared with ERK compounds of the prior art [3]: higher solubility

Question: For `O=C1Nc2cc3[nH]nc(-c4ccncc4)c3cc2CN1Cc1ccccc1` [KO-947], which “Solubility” value [4] is on record?
Answer: poor solubility
